# Results as given in ChEMBL document CHEMBL3867468, “Discovery of 4-chloro-3-(5-(pyridin-3-yl)-1,2,4-oxadiazole-3-yl)benzamides as novel RET kinase inhibitors” (Bioorg Med Chem Lett, 2016).
# Biological target: Proto-oncogene tyrosine-protein kinase receptor Ret (Homo sapiens, UniProt P07949)
# Details: not given
# Sequence of Proto-oncogene tyrosine-protein kinase receptor Ret (P07949 whole entry): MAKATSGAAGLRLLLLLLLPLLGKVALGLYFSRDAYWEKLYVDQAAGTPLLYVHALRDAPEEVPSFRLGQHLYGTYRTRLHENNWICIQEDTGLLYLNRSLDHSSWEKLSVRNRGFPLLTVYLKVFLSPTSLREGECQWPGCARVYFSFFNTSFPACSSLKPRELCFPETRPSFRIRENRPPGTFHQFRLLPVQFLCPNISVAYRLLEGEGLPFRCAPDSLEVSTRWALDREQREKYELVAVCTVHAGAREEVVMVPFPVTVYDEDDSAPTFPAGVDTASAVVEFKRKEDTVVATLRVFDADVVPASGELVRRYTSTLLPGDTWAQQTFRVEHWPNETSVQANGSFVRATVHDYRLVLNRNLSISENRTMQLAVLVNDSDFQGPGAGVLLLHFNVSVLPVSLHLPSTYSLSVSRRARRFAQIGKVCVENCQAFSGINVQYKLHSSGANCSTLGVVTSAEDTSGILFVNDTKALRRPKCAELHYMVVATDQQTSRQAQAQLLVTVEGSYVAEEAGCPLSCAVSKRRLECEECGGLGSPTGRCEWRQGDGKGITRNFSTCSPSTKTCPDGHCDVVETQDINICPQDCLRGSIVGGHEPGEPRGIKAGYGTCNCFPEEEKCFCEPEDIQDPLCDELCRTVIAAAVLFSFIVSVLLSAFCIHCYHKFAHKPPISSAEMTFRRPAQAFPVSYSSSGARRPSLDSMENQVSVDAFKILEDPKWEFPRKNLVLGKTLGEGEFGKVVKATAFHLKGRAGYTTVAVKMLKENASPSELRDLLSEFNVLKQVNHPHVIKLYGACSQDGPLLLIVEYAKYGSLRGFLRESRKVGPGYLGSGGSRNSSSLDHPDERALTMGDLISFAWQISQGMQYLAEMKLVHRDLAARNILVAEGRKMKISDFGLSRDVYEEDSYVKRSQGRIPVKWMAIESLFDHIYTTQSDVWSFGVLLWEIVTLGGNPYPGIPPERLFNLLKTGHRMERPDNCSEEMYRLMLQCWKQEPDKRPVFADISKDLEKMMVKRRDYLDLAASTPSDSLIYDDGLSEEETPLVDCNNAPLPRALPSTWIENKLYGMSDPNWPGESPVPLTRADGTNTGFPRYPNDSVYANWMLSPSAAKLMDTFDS
row,IC50,SMILES
1,1.8 nM,CN1CCN(Cc2ccc(NC(=O)c3ccc(Cl)c(-c4noc(-c5cncc(-c6cnn(C)c6)c5)n4)c3)cc2C(F)(F)F)CC1
2,26.6 nM,CN1CCN(Cc2ccc(NC(=O)c3ccc(Cl)c(-c4noc(-c5ccncc5)n4)c3)cc2C(F)(F)F)CC1
3,138 nM,CN1CCN(Cc2ccc(NC(=O)c3ccc(Cl)c(-c4nnc(-c5cccnc5)o4)c3)cc2C(F)(F)F)CC1
4,2.5 nM,CN1CCN(Cc2ccc(NC(=O)c3ccc(Cl)c(C#Cc4cccnc4)c3)cc2C(F)(F)F)CC1
5,21.4 nM,CN1CCN(Cc2ccc(NC(=O)c3ccc(Cl)c(-c4nc(-c5cccnc5)co4)c3)cc2C(F)(F)F)CC1
6,17.9 nM,CN1CCN(Cc2ccc(NC(=O)c3cccc(-c4noc(-c5cccnc5)n4)c3)cc2C(F)(F)F)CC1
7,2.1 nM,CN1CCN(Cc2ccc(NC(=O)c3ccc(Cl)c(-c4noc(-c5cncc(N6CCOCC6)c5)n4)c3)cc2C(F)(F)F)CC1
8,19.4 nM,CN1CCN(Cc2ccc(NC(=O)c3ccc(Cl)c(-c4cnc(-c5cccnc5)o4)c3)cc2C(F)(F)F)CC1
9,342 nM,COc1ccc(-c2nc(-c3cc(C(=O)Nc4ccc(CN5CCN(C)CC5)c(C(F)(F)F)c4)ccc3Cl)no2)cn1
10,7.3 nM,CN1CCN(Cc2ccc(NC(=O)c3ccc(Cl)c(-c4noc(-c5cccnc5)n4)c3)cc2C(F)(F)F)CC1
11,108 nM,Cc1ccc(C(=O)Nc2ccc(CN3CCN(C)CC3)c(C(F)(F)F)c2)cc1-c1noc(-c2cccnc2)n1
12,12.4 nM,CN1CCN(Cc2ccc(NC(=O)c3ccc(Cl)c(-c4nc(-c5cccnc5)no4)c3)cc2C(F)(F)F)CC1
13,11.4 nM,COCCOc1cncc(-c2nc(-c3cc(C(=O)Nc4ccc(CN5CCN(C)CC5)c(C(F)(F)F)c4)ccc3Cl)no2)c1

# Test system: not listed separately
# Test: Inhibition of CCDC6/RET V804M mutant (unknown origin) expressed in mouse BaF3 cells assessed as reduction in cell proliferation after 72 hrs by MTT assay
# Type: cell-based
# Details: BaF3, 72 h
row,SMILES,IC50
1,CN1CCN(Cc2ccc(NC(=O)c3ccc(Cl)c(-c4noc(-c5cncc(-c6cnn(C)c6)c5)n4)c3)cc2C(F)(F)F)CC1,442 nM
2,Cc1ccc(C(=O)Nc2ccc(CN3CCN(C)CC3)c(C(F)(F)F)c2)cc1C#Cc1cnc2cccnn12 [PONATINIB],136 nM
